These results are taken from PubChem BioAssay (NCI).

Some test systems named below: CAKI-1 renal; EKVX NSCLC; MDA-N; OVCAR-4 ovarian; HOP-92 NSCLC; SN12C renal; OVCAR-3 ovarian; SF-268 CNS; HS 578T breast.
Test in all cases: NCI tumour cell line growth inhibition, 48 h

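Interpolation was linear, between the two tested concentrations surrounding the appropriate level; five concentrations were tested over 48 hours in 96-well plates. TGI: total growth inhibition.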

Turning to `COc1ccc(-c2cc(-c3ccccc3)[nH]c(=S)c2C#N)cc1`, the TGI in the assay with CAKI-1 renal was greater than 100 µM; in the assay on EKVX NSCLC it was greater than 100 µM; in the assay with MDA-N, greater than 100 µM; in the assay on OVCAR-4 ovarian, greater than 100 µM; with HOP-92 NSCLC, 98.3 µM; in the assay with SN12C renal it was greater than 100 µM. Further, the TGI was 38.3 µM in the assay on OVCAR-3 ovarian, greater than 100 µM in the assay with SF-268 CNS and greater than 100 µM with HS 578T breast.
`COc1cc2ccc1OCc1cccc(n1)COc1ccc(cc1OC)C=Nc1ccc(cc1)N=C2`: the TGI in the assay with CAKI-1 renal, with EKVX NSCLC, in the assay on MDA-N, in the assay on OVCAR-4 ovarian, with HOP-92 NSCLC and in the assay with SN12C renal was greater than 100 µM each time. For the same compound, the TGI in the assay with OVCAR-3 ovarian, in the assay on SF-268 CNS and in the assay on HS 578T breast was greater than 100 µM throughout.
Turning to `O=c1cc(-c2cc(O)c(O)c(-c3c(O)cc4oc(-c5ccc(O)c(O)c5)cc(=O)c4c3O)c2)oc2cc(O)cc(O)c12`, the TGI with CAKI-1 renal, in the assay with EKVX NSCLC, in the assay on MDA-N, in the assay on OVCAR-4 ovarian, in the assay on HOP-92 NSCLC and in the assay on SN12C renal was greater than 25 µM each time. Also, the TGI with OVCAR-3 ovarian, with SF-268 CNS and in the assay with HS 578T breast was greater than 25 µM in each case.
As for `COC(=O)c1cc(C#N)[nH]c1-c1cc(Br)cs1`, the TGI is 62.7 µM in the assay with CAKI-1 renal; 47.6 µM in the assay with EKVX NSCLC; 29.4 µM in the assay on MDA-N; greater than 57.7 µM in the assay with OVCAR-4 ovarian; 19.1 µM with HOP-92 NSCLC; 32.3 µM in the assay on SN12C renal. The TGI was determined as 21.9 µM in the assay on OVCAR-3 ovarian, 51 µM in the assay on SF-268 CNS and 45.4 µM in the assay with HS 578T breast.
Turning to `O=c1[nH]nc(Cc2ccccc2)n1/N=C/c1ccncc1`, the TGI with CAKI-1 renal, in the assay on EKVX NSCLC, in the assay on MDA-N, in the assay with OVCAR-4 ovarian, with HOP-92 NSCLC and with SN12C renal was greater than 100 µM in each case. The TGI in the assay on OVCAR-3 ovarian, in the assay on SF-268 CNS and in the assay on HS 578T breast was greater than 100 µM throughout.
On to `O=C1NCN(c2ccccc2)C12CCN(CCCN1CCN(CCOC(c3ccc(F)cc3)c3ccc(F)cc3)CC1)CC2`, for which the TGI amounted to 5.07 µM with CAKI-1 renal; 9.81 µM in the assay with EKVX NSCLC; 3.65 µM in the assay with MDA-N; 9.58 µM in the assay with OVCAR-4 ovarian; 3.9 µM with HOP-92 NSCLC; 4.14 µM in the assay on SN12C renal. Also, the TGI is 3.86 µM with OVCAR-3 ovarian, 3.79 µM with SF-268 CNS and 4.67 µM in the assay with HS 578T breast.
Regarding `Cn1c2ccccc2c(=O)c2c(O)cc3c(c21)C=CC1(CCCCC1)O3`, the TGI in the assay with CAKI-1 renal, in the assay on EKVX NSCLC, with MDA-N, in the assay on OVCAR-4 ovarian, in the assay with HOP-92 NSCLC and with SN12C renal was greater than 10 µM in each case. Moreover, the TGI with OVCAR-3 ovarian, in the assay with SF-268 CNS and in the assay on HS 578T breast was greater than 10 µM each time.
`CCOC(=O)C#Cc1ccccc1`: the TGI in the assay on CAKI-1 renal was 33.4 µM; in the assay on EKVX NSCLC, 10.9 µM; with MDA-N, 45 µM; with OVCAR-4 ovarian, 11.7 µM; with HOP-92 NSCLC it was 36.9 µM; in the assay on SN12C renal it was 80.1 µM. The TGI in the assay on OVCAR-3 ovarian was 45.7 µM; in the assay with HS 578T breast, 82.3 µM.
In the case of `COC1CC(OC2CCC3(C)C(=CCC4C3C(OC(C)=O)C(OC(=O)CC(C)C)C3(C)C(C(C)=O)CCC43O)C2)OC(C)C1OC1CC(OC)C(OC2CC(OC)C(OC3OC(C)C(OC4OC(CO)C(O)C(O)C4O)C(OC)C3O)C(C)O2)C(C)O1` (stereo not given), the TGI with CAKI-1 renal, in the assay with EKVX NSCLC, with MDA-N, in the assay on OVCAR-4 ovarian, in the assay on HOP-92 NSCLC and in the assay with SN12C renal was greater than 75 µM in each case. The TGI in the assay on OVCAR-3 ovarian, with SF-268 CNS and with HS 578T breast was greater than 75 µM throughout.
Regarding `S=c1cc(-c2ccc3c(c2)OCO3)s[nH]1`, the TGI in the assay on CAKI-1 renal, with EKVX NSCLC, in the assay on MDA-N, in the assay on OVCAR-4 ovarian, in the assay on HOP-92 NSCLC and in the assay with SN12C renal was greater than 100 µM throughout. For the same compound, the TGI in the assay with OVCAR-3 ovarian, in the assay on SF-268 CNS and with HS 578T breast was greater than 100 µM each time.
In the case of `C\C(=N/N=C1/C(=C\N(C)C)C(=O)NC(=O)N1C)c1ccc(Cl)cc1`, the TGI in the assay on CAKI-1 renal, in the assay on EKVX NSCLC, with MDA-N, with OVCAR-4 ovarian, in the assay with HOP-92 NSCLC and in the assay with SN12C renal was greater than 100 µM in each case. Also, the TGI with OVCAR-3 ovarian, in the assay on SF-268 CNS and in the assay on HS 578T breast was greater than 100 µM throughout.
For `COc1ccc(N(C(=O)Nc2ccc(Cl)c(Cl)c2)C2c3cccn3C(=O)N2c2ccc(Cl)c(Cl)c2)cc1` (stereo not given), the TGI in the assay on CAKI-1 renal, with EKVX NSCLC, with MDA-N, in the assay with OVCAR-4 ovarian, in the assay with HOP-92 NSCLC and with SN12C renal was greater than 100 µM throughout. Moreover, the TGI with SF-268 CNS and in the assay on HS 578T breast was greater than 100 µM each time.
On to `CCON1CC(C(=O)OC)=C(O)C1=O`, for which the TGI in the assay on CAKI-1 renal, in the assay on EKVX NSCLC, with MDA-N, in the assay on OVCAR-4 ovarian, with HOP-92 NSCLC and in the assay on OVCAR-3 ovarian was greater than 100 µM throughout. Further, the TGI in the assay with SF-268 CNS and in the assay with HS 578T breast was greater than 100 µM each time.
For `CC1(C)[C@H]2CC[C@@]13C(=O)N1C(=O)O[C@@H]([C@H]1Cl)C(Cl)(COCc1ccccc1)C(=O)OCCO[C@H]3C2` (stereo not given in full), the TGI in the assay on CAKI-1 renal, in the assay on EKVX NSCLC, in the assay on MDA-N, in the assay on OVCAR-4 ovarian, with HOP-92 NSCLC and with OVCAR-3 ovarian was greater than 100 µM throughout. The TGI with SF-268 CNS and with HS 578T breast was greater than 100 µM throughout.
Turning to `Cc1ccc(C2=CC(=O)/C(=C\C(=O)c3ccc(Cl)cc3)O2)cc1`, the TGI is 4.38 µM in the assay with CAKI-1 renal; greater than 100 µM in the assay on EKVX NSCLC; 16.2 µM with MDA-N; 33.5 µM with OVCAR-4 ovarian; 33.3 µM in the assay on HOP-92 NSCLC; 18.4 µM in the assay on OVCAR-3 ovarian. Moreover, the TGI in the assay on SF-268 CNS stood at 36.3 µM; in the assay on HS 578T breast it was 55.1 µM.
